Data on six compounds can be found in paper PMC8128076 (RSC Medicinal Chemistry, 2021).

Where two headings read alike, the source gives them in different places.

The target in series [1] is T1, mTOR (Homo sapiens, UniProt P42345). Kind of series: LanthaScreen TR-FRET displacement binding assay, mTOR. (In general: Time-resolved FRET reads energy transfer from a long-lived donor to a nearby acceptor.)
A further series has as its system human MDR1 (P-gp). Kind of series: in vitro. Particulars: dog, MDCK-MDR1.
For series [2], the system named is phosphorylated S6 ribosomal protein [pS6, Ser235/236]. Particulars: read-out: Cellular assays IC50 pS6 S235/236; A2058 melanoma cells; previously reported, ref [14]; cited from earlier work.
The next series has as its target PI3Kα (p110α) (Homo sapiens, UniProt P42336). Particulars: read-out: In vitro binding assays Ki PI3Kα; TR-FRET displacement, mean ± SD; previously reported, ref [14]; cited from earlier work.
In series [3] the target is T1, mTOR. The following applies: previously reported, ref [14], cited from earlier work; for SI (selectivity index), Ki(PI3Kα)/Ki(mTOR): mTOR over PI3Kα.

T1 sequence (P42345 1360-2549): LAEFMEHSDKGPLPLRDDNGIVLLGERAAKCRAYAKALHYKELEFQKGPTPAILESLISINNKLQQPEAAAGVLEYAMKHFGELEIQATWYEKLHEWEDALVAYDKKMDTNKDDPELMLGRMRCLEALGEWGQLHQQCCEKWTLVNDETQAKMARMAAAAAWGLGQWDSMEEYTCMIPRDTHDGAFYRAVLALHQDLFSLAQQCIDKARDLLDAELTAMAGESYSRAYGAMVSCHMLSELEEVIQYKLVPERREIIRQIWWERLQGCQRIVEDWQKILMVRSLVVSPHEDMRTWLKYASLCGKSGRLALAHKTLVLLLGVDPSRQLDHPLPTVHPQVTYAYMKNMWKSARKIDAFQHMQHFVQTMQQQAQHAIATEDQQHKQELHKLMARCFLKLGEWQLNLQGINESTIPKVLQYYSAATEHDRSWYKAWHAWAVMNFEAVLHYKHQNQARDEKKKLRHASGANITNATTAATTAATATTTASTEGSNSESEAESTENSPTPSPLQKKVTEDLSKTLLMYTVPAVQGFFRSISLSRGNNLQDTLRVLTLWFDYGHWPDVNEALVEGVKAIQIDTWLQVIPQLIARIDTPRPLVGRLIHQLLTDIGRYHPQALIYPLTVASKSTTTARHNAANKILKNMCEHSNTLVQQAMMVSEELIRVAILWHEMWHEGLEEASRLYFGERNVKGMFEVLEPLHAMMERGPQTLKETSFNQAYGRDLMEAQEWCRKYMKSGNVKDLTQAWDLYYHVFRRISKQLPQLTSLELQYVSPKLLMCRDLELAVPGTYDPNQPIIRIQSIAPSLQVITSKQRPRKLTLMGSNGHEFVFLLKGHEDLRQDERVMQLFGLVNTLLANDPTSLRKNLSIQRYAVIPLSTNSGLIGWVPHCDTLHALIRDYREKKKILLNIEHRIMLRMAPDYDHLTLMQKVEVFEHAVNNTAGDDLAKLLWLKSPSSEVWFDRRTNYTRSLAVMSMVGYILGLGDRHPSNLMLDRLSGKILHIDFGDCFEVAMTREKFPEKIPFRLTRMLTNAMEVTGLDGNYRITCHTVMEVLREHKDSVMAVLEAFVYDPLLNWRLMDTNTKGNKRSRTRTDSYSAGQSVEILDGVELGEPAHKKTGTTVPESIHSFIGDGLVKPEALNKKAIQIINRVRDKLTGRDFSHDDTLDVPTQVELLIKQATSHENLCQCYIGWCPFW
Sequence of PI3Kα (p110α) (P42336 whole entry): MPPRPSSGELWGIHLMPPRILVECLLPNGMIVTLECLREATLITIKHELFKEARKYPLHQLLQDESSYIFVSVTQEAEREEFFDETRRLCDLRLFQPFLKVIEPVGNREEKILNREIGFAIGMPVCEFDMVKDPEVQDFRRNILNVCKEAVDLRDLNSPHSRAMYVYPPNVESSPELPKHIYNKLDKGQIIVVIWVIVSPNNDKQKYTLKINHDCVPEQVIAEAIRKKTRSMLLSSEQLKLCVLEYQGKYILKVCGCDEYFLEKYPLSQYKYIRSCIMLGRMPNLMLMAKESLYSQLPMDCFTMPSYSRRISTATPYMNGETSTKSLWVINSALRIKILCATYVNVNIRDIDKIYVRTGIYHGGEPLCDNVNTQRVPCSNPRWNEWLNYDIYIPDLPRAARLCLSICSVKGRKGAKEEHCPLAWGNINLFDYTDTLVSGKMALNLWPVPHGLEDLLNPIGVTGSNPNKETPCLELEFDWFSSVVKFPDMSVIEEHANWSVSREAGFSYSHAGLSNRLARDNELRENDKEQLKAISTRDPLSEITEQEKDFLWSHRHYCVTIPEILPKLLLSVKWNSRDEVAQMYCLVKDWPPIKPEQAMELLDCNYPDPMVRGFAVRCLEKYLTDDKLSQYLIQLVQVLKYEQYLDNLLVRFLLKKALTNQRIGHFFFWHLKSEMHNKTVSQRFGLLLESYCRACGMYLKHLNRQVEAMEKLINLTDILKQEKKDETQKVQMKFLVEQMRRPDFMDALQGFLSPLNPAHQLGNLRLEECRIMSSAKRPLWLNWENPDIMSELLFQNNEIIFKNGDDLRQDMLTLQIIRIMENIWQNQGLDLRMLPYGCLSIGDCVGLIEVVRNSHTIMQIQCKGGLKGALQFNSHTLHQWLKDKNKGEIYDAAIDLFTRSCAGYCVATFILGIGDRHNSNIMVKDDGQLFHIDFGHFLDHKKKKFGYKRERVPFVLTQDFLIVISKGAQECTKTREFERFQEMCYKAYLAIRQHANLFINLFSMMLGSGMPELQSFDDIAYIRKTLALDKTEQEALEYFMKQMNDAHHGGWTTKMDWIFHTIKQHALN
Sequence of PI3Kα (p110α) (P27986 whole entry partner): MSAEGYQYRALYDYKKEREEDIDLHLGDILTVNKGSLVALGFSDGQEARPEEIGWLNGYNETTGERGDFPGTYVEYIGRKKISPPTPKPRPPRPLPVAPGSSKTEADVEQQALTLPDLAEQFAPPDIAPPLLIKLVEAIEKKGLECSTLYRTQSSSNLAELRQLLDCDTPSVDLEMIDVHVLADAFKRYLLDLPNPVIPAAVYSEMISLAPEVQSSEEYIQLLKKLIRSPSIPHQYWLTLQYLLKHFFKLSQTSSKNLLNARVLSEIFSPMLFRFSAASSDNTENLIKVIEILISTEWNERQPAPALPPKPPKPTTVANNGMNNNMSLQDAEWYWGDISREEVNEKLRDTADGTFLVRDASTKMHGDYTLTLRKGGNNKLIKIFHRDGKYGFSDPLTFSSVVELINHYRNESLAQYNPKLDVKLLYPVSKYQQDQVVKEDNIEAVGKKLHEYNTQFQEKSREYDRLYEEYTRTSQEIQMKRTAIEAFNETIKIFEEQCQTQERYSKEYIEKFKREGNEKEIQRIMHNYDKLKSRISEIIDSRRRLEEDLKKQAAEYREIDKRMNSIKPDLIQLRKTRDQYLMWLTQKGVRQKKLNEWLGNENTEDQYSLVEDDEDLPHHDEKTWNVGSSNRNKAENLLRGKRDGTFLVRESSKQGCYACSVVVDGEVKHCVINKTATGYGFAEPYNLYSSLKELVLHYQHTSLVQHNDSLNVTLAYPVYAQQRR

As for `C[C@@H]1COCCN1c1nc(-c2nc(N)ns2)nc2c1C[C@@H]1COCCN21` [Compound 2], at mTOR [1] (1,2,4-thiadiazole 2 versus pyrimidine 1), the “fold decrease in mTOR affinity” value was greater than 10 fold.

For the compound `C[C@@H]1COCCN1c1nc(-c2cnc(N)nc2C(F)F)nc2c1C[C@@H]1COCCN21` [Compound 8], the “SI (selectivity index), Ki(PI3Kα)/Ki(mTOR)” value (shortened to “SI (selectivity index)”) on mTOR [1] (mTOR over PI3Kα) is on record as less than 1.

Consider `C[C@@H]1COCCN1c1nc(-c2nnc(N)s2)nc2c1C[C@@H]1COCCN21` [Compound 4], for which the Papp with human MDR1 (P-gp) is less than 60 ×10⁻⁶ cm/s.

As for `C[C@@H]1COCCN1c1nc(-c2ccc(N)nc2)nc2c1C[C@@H]1COCCN21` [Compound 5], the IC50 in series [2] was 61 ± 12 nM. Also, the Ki on PI3Kα (p110α) was 2150 ± 400 nM; at mTOR [3] (read-out: In vitro binding assays Ki mTOR, TR-FRET displacement, mean ± SD), 10 ± 1.6 nM. In addition, the “SI (selectivity index)” value at mTOR [3] is given as 215.

In the series on human MDR1 (P-gp), `C[C@@H]1COCCN1c1nc(-c2cnc(N)s2)nc2c1C[C@@H]1COCCN21` [Compound 6] registered a Papp of less than 60 ×10⁻⁶ cm/s.

As to `C[C@@H]1COCCN1c1nc(-c2cnc(N)cn2)nc2c1C[C@@H]1COCCN21` [Compound 12b, reference compound], the IC50 in series [2] is 60 ± 13 nM. In addition, the Ki on PI3Kα (p110α) was 1690 ± 277 nM. Besides, the “SI (selectivity index)” value at mTOR [3] is 212. Further, the Papp in the series on human MDR1 (P-gp) was less than 60 ×10⁻⁶ cm/s.

By Papp is commonly meant a coefficient for how fast a substance crosses the barrier. As usually defined, the Ki is a measure of affinity in units of concentration, obtained from inhibition or displacement.
